Data as given in publication PMC4770715, “LIM kinase inhibitors disrupt mitotic microtubule organization and impair tumor cell proliferation” (Oncotarget, 2015).

How the values were obtained:
Experiment in all cases: biochemical
Parameters in all cases: KINOMEscan active-site competition binding, percent of control (100 = no competition)
Settings in all cases: competition binding, percent control
[1] = molecular target: T1, ARK5 (Homo sapiens, UniProt O60285)
T1 construct: gene NUAK1

[2] = molecular target: T2, ASK2 (Homo sapiens, UniProt O95382)
T2 construct: gene MAP3K6

[3] = molecular target: AURKA (Homo sapiens, UniProt O14965)
[4] = molecular target: CASK (Homo sapiens, UniProt O14936)
[5] = molecular target: CDK9 (Homo sapiens, UniProt P50750)
[6] = molecular target: DYRK1B (Homo sapiens, UniProt Q9Y463)
[7] = molecular target: DYRK2 (Homo sapiens, UniProt Q92630)
[8] = molecular target: EIF2AK1 (Homo sapiens, UniProt Q9BQI3)
[9] = molecular target: EPHA5 (Homo sapiens, UniProt P54756)
[10] = molecular target: EPHA6 (Homo sapiens, UniProt Q9UF33)
[11] = molecular target: IRAK1 (Homo sapiens, UniProt P51617)
[12] = molecular target: MAP3K1 (Homo sapiens, UniProt Q13233)
[13] = molecular target: MAP4K3 (Homo sapiens, UniProt Q8IVH8)
[14] = molecular target: MAP4K4 (Homo sapiens, UniProt O95819)
[15] = molecular target: MARK2 (Homo sapiens, UniProt Q7KZI7)
[16] = molecular target: T3, MRCKB (Homo sapiens, UniProt Q9Y5S2)
T3 construct: gene CDC42BPB

[17] = molecular target: MYLK (Homo sapiens, UniProt Q15746)
[18] = molecular target: PAK6 (Homo sapiens, UniProt Q9NQU5)
[19] = molecular target: PIK3C2G (Homo sapiens, UniProt O75747)
[20] = molecular target: PKMYT1 (Homo sapiens, UniProt Q99640)
[21] = molecular target: RET(V804M) (Homo sapiens, UniProt P07949, V804M)
[22] = molecular target: RIOK3 (Homo sapiens, UniProt O14730)
[23] = molecular target: T4, RPS6KA4(Kin.Dom.1-N-terminal) (Homo sapiens, UniProt O75676)
T4 construct: Kin.Dom.1-N-terminal

Sequence of PKMYT1 (Q99640 whole entry): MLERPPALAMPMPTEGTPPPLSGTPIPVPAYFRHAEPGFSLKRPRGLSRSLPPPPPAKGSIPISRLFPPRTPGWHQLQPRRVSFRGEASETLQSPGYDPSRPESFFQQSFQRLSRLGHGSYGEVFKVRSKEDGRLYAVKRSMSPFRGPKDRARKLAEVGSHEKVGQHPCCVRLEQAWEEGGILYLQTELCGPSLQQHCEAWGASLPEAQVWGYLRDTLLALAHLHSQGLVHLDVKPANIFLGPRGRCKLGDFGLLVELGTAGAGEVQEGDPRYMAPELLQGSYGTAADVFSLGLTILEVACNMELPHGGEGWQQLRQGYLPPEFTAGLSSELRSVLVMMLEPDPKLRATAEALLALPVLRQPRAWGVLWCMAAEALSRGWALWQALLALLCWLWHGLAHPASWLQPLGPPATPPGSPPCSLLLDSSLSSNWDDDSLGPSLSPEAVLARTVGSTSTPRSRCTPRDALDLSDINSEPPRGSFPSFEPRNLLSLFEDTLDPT
Sequence of MAP3K1 (Q13233 whole entry): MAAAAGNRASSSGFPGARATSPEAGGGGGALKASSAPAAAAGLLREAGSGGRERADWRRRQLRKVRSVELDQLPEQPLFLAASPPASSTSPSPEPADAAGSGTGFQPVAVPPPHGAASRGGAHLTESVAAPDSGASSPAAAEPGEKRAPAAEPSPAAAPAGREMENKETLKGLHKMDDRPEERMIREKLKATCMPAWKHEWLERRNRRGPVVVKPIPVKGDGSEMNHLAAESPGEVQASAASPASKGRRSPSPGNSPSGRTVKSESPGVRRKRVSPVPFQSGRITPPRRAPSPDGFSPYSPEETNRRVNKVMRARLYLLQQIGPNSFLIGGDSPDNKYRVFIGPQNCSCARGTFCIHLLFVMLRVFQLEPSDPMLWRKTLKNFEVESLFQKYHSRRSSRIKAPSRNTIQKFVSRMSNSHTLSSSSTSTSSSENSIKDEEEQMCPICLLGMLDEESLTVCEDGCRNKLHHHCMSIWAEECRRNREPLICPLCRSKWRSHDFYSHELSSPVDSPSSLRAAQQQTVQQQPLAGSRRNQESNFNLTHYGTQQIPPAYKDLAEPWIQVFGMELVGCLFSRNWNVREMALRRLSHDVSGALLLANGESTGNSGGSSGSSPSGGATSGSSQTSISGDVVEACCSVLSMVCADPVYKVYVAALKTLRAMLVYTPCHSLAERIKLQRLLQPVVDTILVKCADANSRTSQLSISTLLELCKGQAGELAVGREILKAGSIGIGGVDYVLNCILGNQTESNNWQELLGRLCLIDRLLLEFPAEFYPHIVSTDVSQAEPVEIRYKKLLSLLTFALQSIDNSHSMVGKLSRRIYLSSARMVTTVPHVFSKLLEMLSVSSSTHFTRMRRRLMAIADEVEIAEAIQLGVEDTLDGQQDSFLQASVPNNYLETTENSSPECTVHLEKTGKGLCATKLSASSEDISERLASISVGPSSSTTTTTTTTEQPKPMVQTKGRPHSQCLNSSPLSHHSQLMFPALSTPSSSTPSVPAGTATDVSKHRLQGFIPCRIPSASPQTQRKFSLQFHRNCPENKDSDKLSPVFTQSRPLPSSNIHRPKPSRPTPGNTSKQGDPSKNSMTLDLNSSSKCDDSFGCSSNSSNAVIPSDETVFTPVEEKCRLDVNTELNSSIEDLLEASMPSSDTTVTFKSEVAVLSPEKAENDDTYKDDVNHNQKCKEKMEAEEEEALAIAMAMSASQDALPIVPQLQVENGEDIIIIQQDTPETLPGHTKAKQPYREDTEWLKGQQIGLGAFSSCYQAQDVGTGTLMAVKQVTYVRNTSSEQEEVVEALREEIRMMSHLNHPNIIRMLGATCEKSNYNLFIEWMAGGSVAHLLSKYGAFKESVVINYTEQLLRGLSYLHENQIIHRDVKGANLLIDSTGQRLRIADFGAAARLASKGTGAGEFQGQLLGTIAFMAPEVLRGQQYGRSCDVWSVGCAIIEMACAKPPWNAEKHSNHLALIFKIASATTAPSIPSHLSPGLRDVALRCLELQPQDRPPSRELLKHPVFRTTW
Sequence of DYRK1B (Q9Y463 whole entry): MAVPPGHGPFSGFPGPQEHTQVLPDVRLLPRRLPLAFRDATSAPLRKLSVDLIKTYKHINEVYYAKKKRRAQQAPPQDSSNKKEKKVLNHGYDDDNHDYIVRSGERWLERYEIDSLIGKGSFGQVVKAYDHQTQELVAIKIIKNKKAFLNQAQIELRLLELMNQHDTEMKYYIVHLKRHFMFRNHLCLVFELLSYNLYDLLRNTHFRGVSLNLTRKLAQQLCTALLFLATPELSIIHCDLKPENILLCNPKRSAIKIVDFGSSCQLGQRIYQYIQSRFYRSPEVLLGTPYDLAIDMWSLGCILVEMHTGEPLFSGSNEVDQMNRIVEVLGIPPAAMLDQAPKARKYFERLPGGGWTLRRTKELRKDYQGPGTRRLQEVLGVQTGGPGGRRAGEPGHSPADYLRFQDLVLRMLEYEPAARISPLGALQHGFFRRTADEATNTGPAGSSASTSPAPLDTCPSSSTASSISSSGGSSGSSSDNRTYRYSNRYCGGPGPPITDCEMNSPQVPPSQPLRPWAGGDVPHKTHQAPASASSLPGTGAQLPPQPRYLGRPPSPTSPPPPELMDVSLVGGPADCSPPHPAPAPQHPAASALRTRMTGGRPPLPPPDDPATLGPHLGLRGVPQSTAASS
Sequence of CASK (O14936 whole entry): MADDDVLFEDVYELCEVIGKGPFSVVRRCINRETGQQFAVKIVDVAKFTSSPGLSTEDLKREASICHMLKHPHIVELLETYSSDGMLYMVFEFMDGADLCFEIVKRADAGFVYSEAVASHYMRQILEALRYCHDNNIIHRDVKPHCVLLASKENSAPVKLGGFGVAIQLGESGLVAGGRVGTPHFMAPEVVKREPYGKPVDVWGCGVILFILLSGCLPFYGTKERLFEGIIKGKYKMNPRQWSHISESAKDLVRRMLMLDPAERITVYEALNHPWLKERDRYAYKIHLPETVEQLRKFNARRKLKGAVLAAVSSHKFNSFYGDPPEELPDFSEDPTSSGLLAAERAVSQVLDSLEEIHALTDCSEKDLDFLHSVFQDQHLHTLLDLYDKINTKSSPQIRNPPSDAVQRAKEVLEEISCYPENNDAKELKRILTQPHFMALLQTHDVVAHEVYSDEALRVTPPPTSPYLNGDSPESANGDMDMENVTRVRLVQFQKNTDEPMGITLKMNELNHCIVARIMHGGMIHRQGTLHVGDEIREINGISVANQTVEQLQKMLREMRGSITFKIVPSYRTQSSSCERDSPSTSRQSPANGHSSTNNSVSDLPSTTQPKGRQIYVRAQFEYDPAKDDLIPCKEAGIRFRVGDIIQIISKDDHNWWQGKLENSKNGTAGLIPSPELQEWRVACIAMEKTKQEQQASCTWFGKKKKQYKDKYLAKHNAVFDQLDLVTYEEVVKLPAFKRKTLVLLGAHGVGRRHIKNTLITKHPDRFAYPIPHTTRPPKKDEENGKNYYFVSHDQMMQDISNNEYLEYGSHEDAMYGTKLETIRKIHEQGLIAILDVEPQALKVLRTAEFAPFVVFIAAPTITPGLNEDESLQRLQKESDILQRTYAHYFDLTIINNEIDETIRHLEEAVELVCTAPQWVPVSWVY
Sequence of EIF2AK1 (Q9BQI3 whole entry): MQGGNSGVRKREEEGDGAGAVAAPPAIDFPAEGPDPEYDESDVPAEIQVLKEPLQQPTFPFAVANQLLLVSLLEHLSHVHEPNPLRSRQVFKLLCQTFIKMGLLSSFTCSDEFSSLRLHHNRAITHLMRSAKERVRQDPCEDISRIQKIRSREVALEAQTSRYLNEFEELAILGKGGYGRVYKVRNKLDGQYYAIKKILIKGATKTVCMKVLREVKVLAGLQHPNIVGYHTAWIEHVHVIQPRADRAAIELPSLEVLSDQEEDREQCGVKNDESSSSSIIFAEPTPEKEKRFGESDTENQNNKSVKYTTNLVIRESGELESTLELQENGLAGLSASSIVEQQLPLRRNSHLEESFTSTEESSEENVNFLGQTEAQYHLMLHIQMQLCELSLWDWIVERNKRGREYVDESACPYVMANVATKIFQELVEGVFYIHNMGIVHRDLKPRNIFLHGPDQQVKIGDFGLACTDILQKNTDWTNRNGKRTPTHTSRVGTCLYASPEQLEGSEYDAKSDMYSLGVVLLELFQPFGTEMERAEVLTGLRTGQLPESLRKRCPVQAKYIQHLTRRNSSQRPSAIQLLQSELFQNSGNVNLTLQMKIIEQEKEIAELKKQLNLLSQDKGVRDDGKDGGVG
Sequence of CDK9 (P50750 whole entry): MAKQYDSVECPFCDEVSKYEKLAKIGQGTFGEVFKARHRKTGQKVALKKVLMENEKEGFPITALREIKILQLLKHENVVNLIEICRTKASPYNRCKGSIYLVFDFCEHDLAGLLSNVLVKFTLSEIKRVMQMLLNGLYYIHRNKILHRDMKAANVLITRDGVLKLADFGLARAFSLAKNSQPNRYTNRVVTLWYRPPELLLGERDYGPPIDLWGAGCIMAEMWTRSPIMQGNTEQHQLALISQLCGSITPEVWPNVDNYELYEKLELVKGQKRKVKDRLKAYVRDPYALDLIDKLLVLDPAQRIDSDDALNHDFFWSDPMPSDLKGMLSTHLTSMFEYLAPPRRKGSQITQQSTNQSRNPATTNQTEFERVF
Sequence of AURKA (O14965 whole entry): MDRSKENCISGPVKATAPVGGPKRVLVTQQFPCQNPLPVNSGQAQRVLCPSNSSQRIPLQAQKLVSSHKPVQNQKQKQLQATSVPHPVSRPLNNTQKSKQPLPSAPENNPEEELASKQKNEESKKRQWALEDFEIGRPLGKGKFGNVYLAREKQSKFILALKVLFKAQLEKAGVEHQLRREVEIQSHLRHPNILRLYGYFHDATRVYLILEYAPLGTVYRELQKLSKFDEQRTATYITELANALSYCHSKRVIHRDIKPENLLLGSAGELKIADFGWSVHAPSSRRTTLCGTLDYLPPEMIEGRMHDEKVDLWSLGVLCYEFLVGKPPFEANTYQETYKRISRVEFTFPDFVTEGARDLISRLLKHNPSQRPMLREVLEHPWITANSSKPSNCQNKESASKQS

SMILES | remaining binding at 10 µM [1] [%] | remaining binding at 10 µM [2] [%] | remaining binding at 10 µM [3] [%] | remaining binding at 10 µM [4] [%] | remaining binding at 10 µM [5] [%] | remaining binding at 10 µM [6] [%] | remaining binding at 10 µM [7] [%] | remaining binding at 10 µM [8] [%] | remaining binding at 10 µM [9] [%] | remaining binding at 10 µM [10] [%] | remaining binding at 10 µM [11] [%] | remaining binding at 10 µM [12] [%] | remaining binding at 10 µM [13] [%] | remaining binding at 10 µM [14] [%] | remaining binding at 10 µM [15] [%] | remaining binding at 10 µM [16] [%] | remaining binding at 10 µM [17] [%] | remaining binding at 10 µM [18] [%] | remaining binding at 10 µM [19] [%] | remaining binding at 10 µM [20] [%] | other results
COc1ccc(-c2cnccc2-c2cnc(NC(=O)C(C)C)s2)c(C(F)(F)F)c1 [CRT0105446, N-{5-[3-(4-Methoxy-2-trifluoromethyl-phenyl)-pyridin-4-yl]-hiazol-2-yl}-isobutyramide] | 59 | 100 | 100 | 1.2 | 28 | 40 | 81 | 100 | 100 | 86 | 94 | 88 | 58 | 68 | 63 | 93 | 100 | 93 | 100 | 100 | remaining binding at 10 µM [21]: 68%; remaining binding at 10 µM [22]: 94%; remaining binding at 10 µM [23]: 100%
Cc1ccc(-c2cnccc2-c2cnc(Nc3ccc(O)cc3)s2)c(Cl)c1 [CRT0105950, 4-{5-[3-(2-Chloro-4-methyl-phenyl)-pyridin-4-yl]-thiazol-2-ylamino}-phenol] | 49 | 100 | 18 | 13 | 65 | 5.6 | 79 | 97 | 100 | 30 | 56 | 71 | 18 | 11 | 28 | 78 | 28 | 38 | 95 | 100 | remaining binding at 10 µM [21]: 3.4%; remaining binding at 10 µM [22]: 66%; remaining binding at 10 µM [23]: 14%
